Read-outs that look alike come from different tables or passages of the source.
Assays:
[1] = test system: CCND1; assay: In vitro transcription-translation (IVTT) assay, CCND1 reporter; format: biochemical; conditions: HeLa S3 lysate, sfGFP/mCherry ratio, 2 hrs at 30° C.
How it was run: (§1)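 Reporter: mCherry, P2A, then 3×FLAG-target peptide-sfGFP fusion, IRES-initiated; HeLa S3 lysate IVTT; cpd dilutions 30 μM−0.1 μM half-log in 100% DMSO (dilution-plate conc); DNA added last; 2 h, 30° C; PBS quench.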

[2] = test system: HEK 293T; assay: Cell viability (CellTiter-Fluor), HEK 293T; format: cell-based; conditions: Homo sapiens, 24-72 hrs
Method: (§2) Count and dispense 2,000-10,000 cells per well (100 μL volume) in black 96-well tissue culture microplate and let cells adhere overnight. Add compound dissolved in 100% DMSO to each well as needed and incubate cells in standard culture conditions for 24-72 hrs. Final DMSO concentration in each well should be 0.1-0.5%. At the desired time point, gently aspirate compound containing media and replace with PBS to wash. Repeat wash step for 2 total washes. Remove PBS and add 100 μL CellTiter-Fluor reagent (Promega) reagent to each well. Seal plate and incubate 1 hr at room temperature with orbital shaking. Analyze fluorescence using plate reader to quantify viable cells compared with vehicle (DMSO) control.

[3] = test system: MCL-1; assay: In vitro transcription-translation (IVTT) assay, MCL-1 reporter; format: biochemical; conditions: HeLa S3 lysate, sfGFP/mCherry ratio
How it was run: as §1

[4] = test system: BCL-2; assay: In vitro transcription-translation (IVTT) assay, BCL-2 reporter; format: biochemical; conditions: HeLa S3 lysate, sfGFP/mCherry ratio, 2 hrs at 30° C.
Source text: All reporter constructs have been cloned into the pT7CFE1-CHis plasmid (ThermoFisher #88860) using Gibson assembly procedures (NEB #E2611L). The parental pT7CFE1-CHis plasmid contains an EMCV IRES at the 5′UTR for translation initiation, a multiple-cloning site (MCS) for gene insertion, an optional C-terminal His-epitope tag, and polyA sequence in the 3′UTR to regulate mRNA stability. All reporters are designed to be inserted at the MCS to include a red fluorescent protein (mCherry), P2A self-cleaving peptide which releases the preceding mCherry protein product, and a fusion open reading frame containing a 3×FLAG epitope, a peptide sequence of interest (TEST), and green fluorescent protein (sfGFP).
Construct Plasmid Preparation: All plasmids are isolated from MACH1 cells (ThermoFisher) grown overnight in ampicillin-containing luria broth, and purified using ZymoPure Express Plasmid Midiprep Kit (Zymo Research). Constructs are sequenced verified and diluted to a working concentration of 110 ng/μL.
HeLa S3 Lysate Preparation: HeLa S3 cell pellets are acquired from Ipracell/Ipratech (Belgium) and shipped as 4 mL frozen cell pellets on dry ice for storage at −80° C. until use. The procedure for lysate preparation is as follows. Prepare 1× Lysis Buffer, cold and stored on ice:
Each preparation takes 8 cell pellets (4 ml packed volume each, approximately 1.0×10^9 cells per pellet). Thaw cell pellets from −80° C. on ice for 90 mins. Lay pellets horizontally on top of the ice and rotate every 30 mins to ensure even thawing. Once thawed, add 4 mL of cold lysis buffer to each pellet, and using a serological pipet, gently pipet up and down to break up clumps. Incubate resuspended cells in ice for an additional 30 mins (plunged into ice). During 30 min incubation, rinse and RNase-zap (Ambion) glass dounces (use loose pestle “A”), gently dry and place on ice until needed. Prepare RNase-free Eppendorf tubes for spinning and for batch storage. Add batch labels to 1.5-1.7 mL RNase-free microcentrifuge tubes (labeling scheme below). Each batch will have an extra 1.5-1.7 mL RNase-free microcentrifuge tube for 40 μL of lysate, label the top of this tube (labeling scheme below). After 30 min incubation, transfer all 8 mL of cell pellet to dounce. Cell lysis is complete after douncing 100 times. Aliquot cell lysis into 1.5-1.7 mL temporary-microcentrifuge tubes. Place tubes in centrifuge with “fins” out, and spin at 1,200×g for 5 mins. After the first spin use a 1 mL pipet to resuspend each tube and repeat spin. This acts as an additional lysis step, is more vigorous and increases lysate yield. During second spin get liquid N2 and a fresh conical tube on ice. After spin is complete, transfer supernatant (lysate) from microcentrifuge tubes into the 50 mL conical tube and keep on ice. Repeat steps 10-14 for all other cell pellets until completed. Once all cell lysate has been transferred to the 50 mL conical tube pipet to mix so the solution is homogenous. Transfer 1 mL of lysate into batch-labeled microcentrifuge tubes and flash freeze in liquid nitrogen. Be sure to pipet up and down to mix throughout transfer step. Place all tubes in the […] for long-term storage.
In vitro transcription-translation assay setup: Each assay includes a master mix containing lysate and shared components, a 96-well plate containing compound titrations for testing, a 96-well DNA plate with reporter constructs to be tested, 96-well skirted PCR plates, and 96-well flat-bottom, black, fluorescent assay plates. […]

[5] = test system: MYC; assay: In vitro transcription-translation (IVTT) assay, MYC reporter; format: biochemical; conditions: HeLa S3 lysate, 2 hrs at 30° C.
How it was run: as §1

[6] = test system: MCF7; assay: Cell viability (CellTiter-Fluor), MCF7; format: cell-based; conditions: Homo sapiens, 24-72 hrs
Method: as §2

[7] = test system: CCNE1; assay: In vitro transcription-translation (IVTT) assay, CCNE1 reporter; format: biochemical; conditions: HeLa S3 lysate, sfGFP/mCherry ratio
Method: In vitro transcription-translation assay setup: Each assay includes a master mix containing lysate and shared components, a 96-well plate containing compound titrations for testing, a 96-well DNA plate with reporter constructs to be tested, 96-well skirted PCR plates, and 96-well flat-bottom, black, fluorescent assay plates. Reaction materials setup: (A) Master mix—15 mL conical tube (3 mL of HeLa S3 Lysate described above; 0.6 mL of ThermoFisher Accessory Proteins (#88882); 1.2 ml of ThermoFisher Reaction Mix (#88882); 0.54 mL of nuclease-free Water); (B) 96-Well Master Mix+Compound Plate (Half-log dilutions (30 μM−0.1 μM) of 4 compounds of interest are prepared in 100% DMSO); 96-Well DNA Plate (Five DNA constructs are plated into single columns within the plate. Row 1 of the column contains nuclease free H2O, all other wells contain 110 ng/μL plasmid DNA). Reactions are started by mixing 155 μL of master mix and 3.5 μL of compound serial dilutions, then 9.1 μL of master mix+compound mixture is aliquoted across 5 96-well plates. Reactions begin with final addition of 2 μL of DNA for a 11.1 μL reaction volume in each well. The entire plate is sealed, and incubated for 2 hrs at 30° C. After 2 hrs, quench the assay using 45 μL of PBS, and transfer 50 μL to a flat-bottom black microplate Quantify the sfGFP and mCherry signals from each well on each plate, taking 3 reads of each plate, and perform data analysis below.
In vitro transcription-translation assay data analysis: Each plate is read three times in channels for both sfGFP and mCherry signals. The average signal across these 3 reads is then calculated for further analysis. Control wells containing no DNA reporter are subtracted from reporter wells in the same column to remove auto-fluorescence of the lysate. Then, the ratio of sfGFP/mCherry is calculated per well, and these ratios are averaged across the triplicate experiments on the same plate. Finally, the ratio of each titration concentration is normalized to the no drug control to create the normalized stalling metric. The error on this measurement is determined by propagating error through the averaging and normalization steps. Values are plotted and fit for IC50 determination for each test sequence and titration of compound.

[8] = IVTT assay, read-out: MCL1 IC50
[9] = IVTT assay, MYC reporter, normalized sfGFP/mCherry ratio, half-log dilutions 30 μM-0.1 μM

SMILES | IC50 [1] | IC50 [2] | IC50 ([3]; 2 hrs at 30° C.) | IC50 [4] | IC50 ([5]; sfGFP/mCherry ratio) | IC50 [6] | IC50 [7] | IC50 [3, 8] | IC50 [5, 9]
COc1ccc(C[C@H]2NC[C@H](O)[C@H]2OC(=O)NCCc2nc[nH]c2C)cc1 [V187823, (2R,3S,4S)-4-hydroxy-2-[(4-methoxyphenyl)methyl]pyrrolidin-3-yl N-[2-(5-methyl-1H-imidazol-4-yl)ethyl]carbamate] | 10 to 20 µM | ≥ 4 µM | < 10 µM | 10 to 20 µM | < 10 µM | – | – | – | –
COc1ccc(C[C@H]2NC[C@H](O)[C@H]2OC(=O)NCCc2cnc(N)[nH]2)cc1 [Cmpd V187594] | < 10 µM | ≥ 4 µM | < 10 µM | – | < 10 µM | 1 to 4 µM | – | – | –
O=C(NCC[C@@H]1CCN1)O[C@@H]1[C@@H](O)CN[C@@H]1Cc1ccc(-c2cnco2)cc1F [V192990, (2R,3S,4S)-2-(2-fluoro-4-(oxazol-5-yl)benzyl)-4-hydroxypyrrolidin-3-yl (2-((S)-azetidin-2-yl)ethyl)carbamate] | – | – | – | – | – | – | < 10 µM | < 10 µM | < 10 µM
O=C(NCC[C@@H]1CCCCNC1)O[C@@H]1[C@@H](O)CN[C@@H]1Cc1ccc(-c2cnco2)cc1 [V193013, (2R,3S,4S)-4-hydroxy-2-{[4-(1,3-oxazol-5-yl)phenyl]methyl}pyrrolidin-3-yl N-{2-[(3S)-azepan-3-yl]ethyl}carbamate] | – | – | – | – | – | – | < 10 µM | < 10 µM | < 10 µM
O=C(NCC[C@@H]1CCN1)O[C@@H]1[C@@H](O)CN[C@@H]1Cc1ccc(OC(F)F)cc1 [V192938, (2R,3S,4S)-2-{[4-(difluoromethoxy)phenyl]methyl}-4-hydroxypyrrolidin-3-yl N-{2-[(2S)-azetidin-2-yl]ethyl}carbamate] | – | – | – | – | – | – | < 10 µM | < 10 µM | < 10 µM
O=C(NCc1ccc2c(c1)CNC2)O[C@@H]1[C@@H](O)CN[C@@H]1Cc1ccc(-c2cc(C(F)F)cs2)cc1 [V193165, (2R,3S,4S)-2-(4-(4-(difluoromethyl)thiophen-2-yl)benzyl)-4-hydroxypyrrolidin-3-yl (isoindolin-5-ylmethyl)carbamate] | – | – | – | – | – | – | < 10 µM | < 10 µM | < 10 µM
O=C(NCC[C@@H]1CCN1)O[C@@H]1[C@@H](O)CN[C@@H]1Cc1ccc(C(F)F)cc1 [V193008, (2R,3S,4S)-2-{[4-(difluoromethyl)phenyl]methyl}-4-hydroxypyrrolidin-3-yl N-{2-[(2S)-azetidin-2-yl]ethyl}carbamate] | – | – | – | – | – | – | < 10 µM | < 10 µM | < 10 µM
O=C(NCc1cccc(C2CNC2)c1)O[C@@H]1[C@@H](O)CN[C@@H]1Cc1ccc(-c2cc(C(F)F)cs2)cc1 [V193243, (2R,3S,4S)-2-(4-(4-(difluoromethyl)thiophen-2-yl)benzyl)-4-hydroxypyrrolidin-3-yl (3-(azetidin-3-yl)benzyl)carbamate] | – | – | – | – | – | – | < 10 µM | < 10 µM | < 10 µM
O=C(NCC[C@@H]1CCNC1)O[C@@H]1[C@@H](O)CN[C@@H]1Cc1ccc(C(F)F)cc1 [V193010, (2R,3S,4S)-2-(4-(difluoromethyl)benzyl)-4-hydroxypyrrolidin-3-yl (2-((S)-pyrrolidin-3-yl)ethyl)carbamate] | – | – | – | – | – | – | < 10 µM | 10 to 20 µM | < 10 µM
O=C(NCc1cccc(OC(F)F)c1)O[C@@H]1[C@@H](O)CN[C@@H]1Cc1ccc(-c2cnco2)cc1 [V193068, (2R,3S,4S)-4-hydroxy-2-(4-(oxazol-5-yl)benzyl)pyrrolidin-3-yl (3-(difluoromethoxy)benzyl)carbamate] | – | – | – | – | – | – | < 10 µM | < 10 µM | < 10 µM
COc1ccc(C[C@H]2NC[C@H](O)[C@H]2OC(=O)NCCNc2cc[nH]n2)cc1 [V187827, (2R,3S,4S)-4-hydroxy-2-[(4-methoxyphenyl)methyl]pyrrolidin-3-yl N-[2-(1H-pyrazol-3-ylamino)ethyl]carbamate] | < 10 µM | ≥ 4 µM | < 10 µM | 10 to 20 µM | < 10 µM | – | – | – | –
O=C(NCCOC(F)(F)F)O[C@@H]1[C@@H](O)CN[C@@H]1Cc1ccc(C(F)F)cc1 [V192930, (2R,3S,4S)-2-(4-(difluoromethyl)benzyl)-4-hydroxypyrrolidin-3-yl (2-(trifluoromethoxy)ethyl)carbamate] | – | – | – | – | – | – | < 10 µM | < 10 µM | < 10 µM
O=C(NCc1cc(F)cc(F)c1)O[C@@H]1[C@@H](O)CN[C@@H]1Cc1ccc(-c2cnco2)cc1 [V193071, (2R,3S,4S)-4-hydroxy-2-(4-(oxazol-5-yl)benzyl)pyrrolidin-3-yl (3,5-difluorobenzyl)carbamate] | – | – | – | – | – | – | < 10 µM | < 10 µM | < 10 µM
O=C(NCc1cnsc1)O[C@@H]1[C@@H](O)CN[C@@H]1Cc1ccc(C(F)F)cc1 [V192929, (2R,3S,4S)-2-(4-(difluoromethyl)benzyl)-4-hydroxypyrrolidin-3-yl (isothiazol-4-ylmethyl)carbamate] | – | – | – | – | – | – | < 10 µM | < 10 µM | < 10 µM
O=C(NCCc1cccc(F)c1)O[C@@H]1[C@@H](O)CN[C@@H]1Cc1ccc(-c2cnco2)cc1 [V193069, (2R,3S,4S)-4-hydroxy-2-(4-(oxazol-5-yl)benzyl)pyrrolidin-3-yl (3-fluorophenethyl)carbamate] | – | – | – | – | – | – | < 10 µM | < 10 µM | < 10 µM
